Data taken from PubChem BioAssay AID330 (DTP/NCI, 2004).
“And” between values parts separate entries of the source, which are not always exact repeats. Equal values may be shown once. Toxic doses and inconclusive results are not listed.

Tested on: P388 leukemia ip, CD2F1 mice, survival T/C
Test: NCI In Vivo Anticancer Drug Screen. Data for tumor model P388 Leukemia (intraperitoneal) in CD2F1 (CDF1) mice
Settings: endpoint: median survival time, higher = longer survival
Summary of the method: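 Mice carrying the transplanted tumor received test compound or vehicle. Survival was recorded in each group, and the value is the treated-group measurement divided by that of the vehicle-treated control group.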

[1] = dose: 50.0 mg/kg/injection, schedule: Q01DX005 (ip), vehicle: saline with Tween-80
[2] = dose: 100.0 mg/kg/injection, schedule: Q01DX005 (ip), vehicle: saline with Tween-80
[3] = dose: 200.0 mg/kg/injection, schedule: Q01DX005 (ip), vehicle: saline with Tween-80
[4] = dose: 100.0 mg/kg/injection, schedule: Q01DX009 (ip), vehicle: saline with Tween-80
[5] = dose: 200.0 mg/kg/injection, schedule: Q01DX009 (ip), vehicle: saline with Tween-80
[6] = dose: 25.0 mg/kg/injection, schedule: Q01DX009 (ip), vehicle: saline with Tween-80
[7] = dose: 25.0 mg/kg/injection, schedule: Q01DX009 (ip), vehicle: saline
[8] = dose: 50.0 mg/kg/injection, schedule: Q01DX009 (ip), vehicle: saline with Tween-80
[9] = dose: 50.0 mg/kg/injection, schedule: Q01DX009 (ip), vehicle: saline
[10] = dose: 100.0 mg/kg/injection, schedule: Q01DX009 (ip), vehicle: saline
[11] = dose: 200.0 mg/kg/injection, schedule: Q01DX009 (ip), vehicle: saline
[12] = dose: 60.0 mg/kg/injection, schedule: Q01DX005 (ip), vehicle: saline with Tween-80
[13] = dose: 120.0 mg/kg/injection, schedule: Q01DX005 (ip), vehicle: saline with Tween-80
[14] = dose: 240.0 mg/kg/injection, schedule: Q01DX005 (ip), vehicle: saline with Tween-80
[15] = dose: 50.0 mg/kg/injection, schedule: Q01DX005 (ip), vehicle: saline
[16] = dose: 100.0 mg/kg/injection, schedule: Q01DX005 (ip), vehicle: saline
[17] = dose: 200.0 mg/kg/injection, schedule: Q01DX005 (ip), vehicle: saline
[18] = dose: 50.0 mg/kg/injection, schedule: Q01DX009 (ip), vehicle: Klucel (hydroxypropylcellulose) (HPC)
[19] = dose: 100.0 mg/kg/injection, schedule: Q01DX009 (ip), vehicle: Klucel (hydroxypropylcellulose) (HPC)
[20] = dose: 200.0 mg/kg/injection, schedule: Q01DX009 (ip), vehicle: Klucel (hydroxypropylcellulose) (HPC)
[21] = dose: 25.0 mg/kg/injection, schedule: Q01DX009 (ip), vehicle: Klucel (hydroxypropylcellulose) (HPC)

How did the T/C [1] turn out when `O=C1CCCc2[nH]c3ccc(Cl)cc3c21` was run?
The T/C was 92 % of control.

And the T/C [2]?
Its T/C is 99 % of control.

And the T/C [3]?
Its T/C is 92 % of control.

How did the T/C (dose: 1.25 mg/kg/injection, schedule: Q04DX002 (ip), vehicle: saline with Tween-80) turn out when `COc1cc(C=C2C(=O)C=CC2=O)cc(OC)c1OC` was run?
The T/C was 107 % of control.

What about the T/C (dose: 2.5 mg/kg/injection, schedule: Q04DX002 (ip), vehicle: saline with Tween-80) of the same compound?
The T/C was 99 % of control.

And the T/C (dose: 5.0 mg/kg/injection, schedule: Q04DX002 (ip), vehicle: saline with Tween-80)?
Its T/C is 104 % of control.

`CNS(=O)(=O)c1ccc2c(c1)[nH]c(=S)n2C` was tested. Which T/C [4] did it give?
Its T/C is 95 % of control.

And the T/C [5]?
The T/C was 90 % of control.

And the T/C (dose: 400.0 mg/kg/injection, schedule: Q01DX009 (ip), vehicle: saline with Tween-80)?
Its T/C is 90 % of control.

Which results are given for `COCc1c(C)oc2c(C)c3oc(=O)cc(C)c3cc12`?
T/C (dose: 100.0 mg/kg/injection, schedule: Q05DX002 (ip), vehicle: saline with Tween-80): 101 % of control; T/C (dose: 200.0 mg/kg/injection, schedule: Q05DX002 (ip), vehicle: saline with Tween-80): 95 % of control; T/C (dose: 400.0 mg/kg/injection, schedule: Q05DX002 (ip), vehicle: saline with Tween-80): 107 % of control

With `CCc1ccc(NC(=O)NC(=O)c2c(F)cccc2F)cc1` as the compound, how does the T/C [6] read?
Its T/C is 114 % of control.

And the T/C [7]?
The T/C was 106 % of control.

And the T/C [8]?
The T/C was 106 % of control and 116 % of control.

What about the T/C [9] of the same compound?
The T/C was 103 % of control and 115 % of control.

And the T/C [4]?
The T/C was 100 % of control and 120 % of control.

What about the T/C [10] of the same compound?
The T/C was 101 % of control and 98 % of control.

What about the T/C [5] of the same compound?
Its T/C is 120 % of control and 97 % of control.

What about the T/C [11] of the same compound?
Its T/C is 100 % of control and 103 % of control.

Which results are given for `C=C=COC`?
T/C (dose: 60.0 mg/kg/injection, schedule: Q01DX005 (ip), vehicle: saline): 93 % of control; T/C (dose: 120.0 mg/kg/injection, schedule: Q01DX005 (ip), vehicle: saline): 95 % of control; T/C (dose: 240.0 mg/kg/injection, schedule: Q01DX005 (ip), vehicle: saline): 95 % of control

What does the source list for `CCCCP(=O)(CCCC)CCCC.CCCCP(=O)(CCCC)CCCC.CCCCP(=O)(CCCC)CCCC.CCCCP(=O)(CCCC)CCCC.[Ce+3].[O-][Cl+3]([O-])([O-])O`?
T/C [8]: 97 % of control; T/C [4]: 92 % of control; T/C [5]: 86 % of control

Which results are given for `C/C(=N\Oc1ncc([N+](=O)[O-])c(O/N=C(\C)c2ccccc2)n1)c1ccccc1`?
T/C [12]: 100 % of control; T/C [13]: 88 % of control; T/C [14]: 91 % of control

`O=C(O)c1c[nH]c2cc(OCc3ccc(Br)cc3)ccc2c1=O` was tested. Which T/C [9] did it give?
The T/C was 96 % of control.

And the T/C [10]?
Its T/C is 89 % of control.

What about the T/C [11] of the same compound?
The T/C was 86 % of control.

What does the source list for `CN(C)CCC(C#N)(CCN(C)C)c1ccccc1`?
T/C [15]: 105 % of control; T/C [16]: 103 % of control; T/C [17]: 106 % of control

How did the T/C [12] turn out when `CC(=O)Nc1ccc(S(=O)(=O)Nc2c(-c3ccccc3)[nH]c(C)c2C(C)=O)cc1` was run?
The T/C was 102 % of control.

And the T/C [13]?
The T/C was 102 % of control.

What about the T/C [14] of the same compound?
The T/C was 98 % of control.

Which results are given for `O=C(O)c1cc(O)cc(C(=O)O)c1`?
T/C [6]: 99 % of control; T/C [8]: 99 % of control; T/C [4]: 94 % of control

Which results are given for `Fc1cccc(Cl)c1CSc1n[nH]c(C(F)(F)F)n1`?
T/C [12]: 102 % of control; T/C [13]: 100 % of control; T/C [14]: 111 % of control

Which T/C (dose: 60.0 mg/kg/injection, schedule: Q01DX005 (ip), vehicle: Klucel (hydroxypropylcellulose) (HPC)) does the source give for `Brc1ccc2c(ccc3c2nnc2ncnn23)c1` here?
The T/C was 102 % of control.

And the T/C (dose: 120.0 mg/kg/injection, schedule: Q01DX005 (ip), vehicle: Klucel (hydroxypropylcellulose) (HPC))?
Its T/C is 93 % of control.

What about the T/C (dose: 240.0 mg/kg/injection, schedule: Q01DX005 (ip), vehicle: Klucel (hydroxypropylcellulose) (HPC)) of the same compound?
The T/C was 86 % of control.

`CCCCn1c(Cl)c(/C=N\Nc2ccc([N+](=O)[O-])cc2[N+](=O)[O-])c2ccccc21` was tested. Which T/C (dose: 100.0 mg/kg/injection, schedule: Q04DX003 (ip), vehicle: saline with Tween-80) did it give?
The T/C was 94 % of control.

And the T/C (dose: 200.0 mg/kg/injection, schedule: Q04DX003 (ip), vehicle: saline with Tween-80)?
Its T/C is 90 % of control.

What about the T/C (dose: 400.0 mg/kg/injection, schedule: Q04DX003 (ip), vehicle: saline with Tween-80) of the same compound?
Its T/C is 88 % of control.

With `O=C(/C=C/c1ccc2c(c1)OCO2)C1CC1` as the compound, how does the T/C [8] read?
The T/C was 92 % of control.

What about the T/C [4] of the same compound?
Its T/C is 92 % of control.

What about the T/C [5] of the same compound?
Its T/C is 96 % of control.

What does the source list for `C[Si](C)(C)CC[Si]12OCCN(CCO1)CCO2`?
T/C (dose: 50.0 mg/kg/injection, schedule: Q01DX005 (ip), vehicle: Klucel (hydroxypropylcellulose) (HPC)): 106 % of control; T/C (dose: 100.0 mg/kg/injection, schedule: Q01DX005 (ip), vehicle: Klucel (hydroxypropylcellulose) (HPC)): 104 % of control; T/C (dose: 200.0 mg/kg/injection, schedule: Q01DX005 (ip), vehicle: Klucel (hydroxypropylcellulose) (HPC)): 92 % of control

What does the source list for `CCCCCCCC(=O)C(=O)c1ccc(O)c(C)c1O`?
T/C [18]: 109 % of control; T/C [19]: 102 % of control; T/C [20]: 106 % of control

What does the source list for `CC1(C)C/C(=C\c2ccc([N+](=O)[O-])cc2)C(=O)c2ccccc21`?
T/C [21]: 99 % of control; T/C [18]: 100 % of control; T/C [19]: 99 % of control; T/C [20]: 98 % of control; T/C (dose: 400.0 mg/kg/injection, schedule: Q01DX009 (ip), vehicle: Klucel (hydroxypropylcellulose) (HPC)): 88 % of control

For `O=C(O)C1[N-]CCNC1C(=O)O.[O]=[V][OH]` (stereo not given), which T/C [9] is on record?
The T/C was 91 % of control.

With `Cc1ccccc1N(CC1CO1)CC1CO1` (stereo not given) as the compound, how does the T/C [7] read?
Its T/C is 119 % of control.

And the T/C (dose: 100.0 mg/kg/injection, schedule: Q01DX009 (ip), vehicle: acetone)?
The T/C was 156 % of control.

And the T/C [11]?
The T/C was 165 % of control.

With `COC(=O)C[CH2][Sn]([CH2]CC(=O)OC)([c]1ccccc1)[c]1ccccc1` as the compound, how does the T/C [15] read?
The T/C was 100 % of control.

What about the T/C [16] of the same compound?
The T/C was 100 % of control.

What about the T/C [17] of the same compound?
Its T/C is 97 % of control.

What does the source list for `CSc1nc(Cl)cc(Sc2nc(N)nc3nc[nH]c23)n1`?
T/C (dose: 12.5 mg/kg/injection, schedule: Q01DX009 (ip), vehicle: Klucel (hydroxypropylcellulose) (HPC)): 98 % of control; T/C [21]: 101 % of control and 107 % of control; T/C [18]: 123 % of control and 124 % of control

How did the T/C [7] turn out when `CN1CCCN(C)C1c1ccccc1` was run?
The T/C was 105 % of control.

And the T/C [9]?
Its T/C is 110 % of control.

What about the T/C [10] of the same compound?
The T/C was 95 % of control.

How did the T/C (dose: 50.0 mg/kg/injection, schedule: Q01DX009 (ip), vehicle: saline + alcohol) turn out when `Cc1oc(NCc2ccccc2)c(C#N)c1C` was run?
The T/C was 105 % of control.

And the T/C (dose: 100.0 mg/kg/injection, schedule: Q01DX009 (ip), vehicle: saline + alcohol)?
Its T/C is 90 % of control.

What about the T/C (dose: 200.0 mg/kg/injection, schedule: Q01DX009 (ip), vehicle: saline + alcohol) of the same compound?
Its T/C is 91 % of control.

`CCOC(=O)Nc1cc(Cl)c2[nH]c(=O)[nH]c2n1` was tested. Which T/C (dose: 12.5 mg/kg/injection, schedule: Q01DX009 (ip), vehicle: other) did it give?
The T/C was 103 % of control.

What about the T/C (dose: 25.0 mg/kg/injection, schedule: Q01DX009 (ip), vehicle: other) of the same compound?
The T/C was 106 % of control.

What about the T/C (dose: 50.0 mg/kg/injection, schedule: Q01DX009 (ip), vehicle: other) of the same compound?
Its T/C is 100 % of control.

What about the T/C (dose: 100.0 mg/kg/injection, schedule: Q01DX009 (ip), vehicle: other) of the same compound?
The T/C was 104 % of control.

And the T/C (dose: 200.0 mg/kg/injection, schedule: Q01DX009 (ip), vehicle: other)?
Its T/C is 100 % of control.

Which T/C (dose: 12.5 mg/kg/injection, schedule: Q01DX005 (ip), vehicle: saline with Tween-80) does the source give for `Fc1ccccc1C(Nc1cnccn1)Nc1cnccn1` here?
The T/C was 96 % of control.

What about the T/C (dose: 25.0 mg/kg/injection, schedule: Q01DX005 (ip), vehicle: saline with Tween-80) of the same compound?
The T/C was 102 % of control.

What about the T/C [1] of the same compound?
The T/C was 102 % of control and 109 % of control.

And the T/C [2]?
The T/C was 109 % of control.

What about the T/C [3] of the same compound?
Its T/C is 111 % of control.
